Experiments:
Format in all cases: cell-based
[1] = tested on: NLRP3-dependent release of IL-1β; test: LPS/ATP-induced IL-1β release from differentiated THP1 cells overexpressing human THIK-1; settings: 1 μM, THIK-1 overexpressing THP1 cells
Method: (§1) THP1 cells, obtained from ATCC, are monocytes isolated from peripheral blood of a leukaemia patient. THP1 cells were grown in RPMI 1640 supplemented with 10% fetal bovine serum (FBS, Hyclone), 1% PenStrep (Invitrogen), and 1% GlutaMax (Invitrogen), and 0.05 mM of 2-mercaptoethanol. To overexpress human THIK-1, THP1 cells were differentiated with 100 ng/ml PMA for 24 h prior to transfection with THIK-1 mRNA synthesized as described in the supplementary material. Cell suspensions (2.5 × 10^6 cells in […]) in the presence of 200 μg/ml mRNA were electroporated with the MaxCyte (STX instrument) in an OC-25 MaxCyte Electroporation cassette using manufacturer settings for THP1 cells. Cell suspensions were transferred to a 6-well plate and allowed to recover for 20 min at 37 °C. Cells were seeded into 384-well plates (10,000 cells/well) for thallium flux assays or 96-well plates (50,000 cells/well) for inflammasome assays the following day. Overexpressing and mock-transfected cells were primed with 100 ng/ml of LPS for 3.5 h prior to addition of compounds 30 min before stimulation with 5 mM ATP. Supernatants were collected 2 h after addition of ATP and stored at −20 °C until the detection of IL-1β.
IL-1β from culture supernatants was measured with DuoSet ELISA kit (R&D Systems) following the manufacturer instructions.

THIK-1 [2] = molecular target: T1, THIK-1 (Homo sapiens, UniProt Q9HB14); test: FLIPR thallium influx assay, HEK-hTHIK-1 cells; settings: HEK-hTHIK-1, normalised to TPA controls; read-out: IC50, inhibition of THIK-1 constitutive activity (thallium influx)
T1 construct: expressed in transfected cells
T1 sequence (Q9HB14 1-408): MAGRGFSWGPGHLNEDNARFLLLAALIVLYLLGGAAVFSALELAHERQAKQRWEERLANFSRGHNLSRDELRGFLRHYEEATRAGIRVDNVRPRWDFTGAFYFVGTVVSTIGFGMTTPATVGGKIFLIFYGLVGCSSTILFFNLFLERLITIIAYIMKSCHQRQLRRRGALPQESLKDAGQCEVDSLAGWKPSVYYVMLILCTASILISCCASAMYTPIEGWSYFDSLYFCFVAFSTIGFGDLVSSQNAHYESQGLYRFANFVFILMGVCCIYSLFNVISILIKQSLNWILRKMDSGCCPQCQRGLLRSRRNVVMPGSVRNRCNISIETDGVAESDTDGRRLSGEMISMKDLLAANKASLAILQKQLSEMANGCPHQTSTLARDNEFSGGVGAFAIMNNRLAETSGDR
Method: HEK-293 cells were transfected with human THIK-1, TREK-1, TWIK-2, or mouse THIK-1 cDNA cloned into pcDNA3.1, using either Fugene HD transfection reagent (Promega) or electroporation (MaxCyte STX instrument). Cells stably expressing the relevant genes were selected based on resistance to 500 μg/ml geneticin (Gibco). For human THIK-1 and TWIK-2 expressing cells, monoclonal lines were isolated by limited dilution cloning; mouse THIK-1 and human TREK-1 expressing cells were maintained as polyclonal pools. The HEK-293 pools and monoclones stably expressing the relevant genes were maintained in DMEM (Life Technologies), supplemented with 10% FCIII (HyClone, Fetal clone III) and 500 μg/ml geneticin. A CHO-Kv2.1 cell line was purchased from Millipore (accession NM_004975) and maintained in F12 (Life Technologies), supplemented with 10% FCSIII (Thermo Scientific) and 500 μg/ml geneticin (Life Technologies). For thallium flux assays, banks of frozen cell aliquots were prepared the day prior to assay, cells were thawed into media and seeded into PDL coated 384-well plates (Corning) at 25,000 (human/mouse THIK-1, TREK-1) or 30,000 (TWIK-2) cells/well (25 μl/well). CHO-Kv2.1 cells were seeded into non-PDL coated plates (Corning) at 5000 cells/well. Plated cells were incubated overnight at 37 °C, 5% CO2 in a humidified atmosphere. For Q-Patch assays, cells were cultured for 7 days prior to assay, dissociated, and diluted to 1–2.5 million/ml in EX-CELL ACF serum free media containing HEPES (25 mM; Life Technologies), penicillin/streptomycin (100 U/ml, 100 μg/ml; Life Technologies) and a trypsin inhibitor (0.04 mg/ml).
A fluorescence-based thallium influx assay (Molecular Devices potassium assay kit) was used to monitor channel activity. In brief, component A was reconstituted in 17 ml of chloride-free assay buffer (130 mM sodium D-gluconate, 5 mM potassium D-gluconate, 2 mM calcium D-gluconate, 1 mM magnesium D-gluconate, 5 mM NaHCO3, 20 mM HEPES; pH adjusted to 7.4 with NaOH and filtered (0.45 μm filter)) and component C reconstituted in 30 μl of DMSO. Components A and C were combined, and probenecid was added (Life Technologies; final assay concentration (FAC) 4.75 mM for HEK cell lines and 2.47 mM for CHO-Kv2.1) to provide the final dye solution. Media was removed from the cell plates and replaced with dye (20 μl/well) and the plates were incubated at room temperature in the dark for 60 min. On the day of the assay, a diluted compound plate (3x FAC in 1.5% DMSO) was created. Control wells contained either DMSO vehicle (1.5%, 3x FAC) or tetrapentylammonium chloride (TPA; Sigma, 258962; 1.5 mM in 1.5% DMSO, 3x FAC). A 3x thallium stimulation plate was also prepared, to provide a FAC of either 1 mM (human THIK-1) or 3 mM (mouse THIK-1, TREK-1, TWIK-2) thallium sulphate (in assay buffer). For Kv2.1, the FAC of thallium sulphate was 2.6 mM and this was prepared in assay buffer containing potassium sulphate (Sigma P9458; FAC 23.3 mM). Following 60 min of dye loading, 10 μl from the 3x FAC compound plate was added into the cell plate, which was then incubated for 15 min at room temperature in the dark. Using a fluorescent imaging plate reader (FLIPR) tetra plate reader, 15 μl thallium stimulus solution was added to the cell plate and the fluorescence signal recorded every second for 1 min (excitation: 470–495 nm, emission: 515–575 nm).

THIK-1 [3] = molecular target: T1, THIK-1; test: Thallium influx in human THIK-1 overexpressing differentiated THP1 cells; settings: THIK-1 mRNA-transfected differentiated THP1 cells; read-out: IC50, block of thallium influx
Method: as §1, with “Overexpressing and mock-transfected cells were primed with 100 ng/ml of LPS for 3.5 h prior to addition of compounds 30 min before stimulation with 5 mM ATP. Supernatants were collected 2 h after addition of ATP and stored at −20 °C until the detection of IL-1β.” left out
A fluorescence-based thallium influx assay (Molecular Devices potassium assay kit) was used to monitor channel activity. […] Using a fluorescent imaging plate reader (FLIPR) tetra plate reader, 15 μl thallium stimulus solution was added to the cell plate and the fluorescence signal recorded every second for 1 min (excitation: 470–495 nm, emission: 515–575 nm).

SMILES | effect on ATP-stimulated IL-1β release [1] | IC50 (THIK-1 [2]) [µM] | IC50 (THIK-1 [3]) [µM]
CC(C)(O)c1coc(S(=O)(=O)NC(=O)Nc2c3c(cc4c2CCC4)CCC3)c1 [MCC950, reference compound] | completely blocked | – | –
CCCCC[N+](CCCCC)(CCCCC)CCCCC [TPA, tetrapentylammonium chloride, reference compound] | – | 4.7 | 6.8
